The results in this text go back to PubChem BioAssay AID1918934 (Molecular Pharmacology Branch, DTP, NCI, 2023).

The experiment has as its system 292921-168-R-J2-PDC complex spheroid viability. The experiment is described as follows: Anticancer human tumor 292921-168-R-J2-PDC patient-derived pancreatic carcinoma cell line growth inhibition. Particulars: for viability, T/C: stronger effect = lower value. Summed up: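 Drug combinations with the LSD1 inhibitor iadademstat tested on tumor cells co-cultured as spheroids with endothelial cells and mesenchymal stem cells. Concentrations descended in half-log increments from clinical Cmax or 10 microM.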

Where [1] appears, read: curve of first compound, second compound 0.1 µM.
[2] abbreviates: curve of first compound, second compound 0.316 µM.
[3] abbreviates: curve of first compound, second compound 1 µM.
Setting [4] is: curve of first compound, second compound 3.16 µM.
[5] abbreviates: curve of first compound, second compound 10 µM.
Where [6] appears, read: second compound 0.1 µM, first compound 0.00949 µM.
Setting [7] is: second compound 0.1 µM, first compound 0.03 µM.
Where [8] appears, read: second compound 0.1 µM, first compound 0.0949 µM.
Setting [9] is: second compound 0.1 µM, first compound 0.3 µM.
The mark [10] stands for this setting: second compound 0.1 µM, first compound 0.949 µM.
Setting [11] is: second compound 0.1 µM, first compound 3 µM.
The mark [12] stands for this setting: second compound 0.316 µM, first compound 0.00949 µM.
[13] abbreviates: second compound 0.316 µM, first compound 0.03 µM.
The mark [14] stands for this setting: second compound 0.316 µM, first compound 0.0949 µM.
The mark [15] stands for this setting: second compound 0.316 µM, first compound 0.3 µM.
The mark [16] stands for this setting: second compound 0.316 µM, first compound 0.949 µM.
Setting [17] is: second compound 0.316 µM, first compound 3 µM.
The mark [18] stands for this setting: second compound 1 µM, first compound 0.00949 µM.
[19] abbreviates: second compound 1 µM, first compound 0.03 µM.
[20] abbreviates: second compound 1 µM, first compound 0.0949 µM.
Where [21] appears, read: second compound 1 µM, first compound 0.3 µM.
Setting [22] is: second compound 1 µM, first compound 0.949 µM.
Setting [23] is: second compound 1 µM, first compound 3 µM.
Setting [24] is: second compound 3.16 µM, first compound 0.00949 µM.
The mark [25] stands for this setting: second compound 3.16 µM, first compound 0.03 µM.
The mark [26] stands for this setting: second compound 3.16 µM, first compound 0.0949 µM.
Where [27] appears, read: second compound 3.16 µM, first compound 0.3 µM.
The mark [28] stands for this setting: second compound 3.16 µM, first compound 0.949 µM.
Where [29] appears, read: second compound 3.16 µM, first compound 3 µM.
[30] abbreviates: second compound 10 µM, first compound 0.00949 µM.
Where [31] appears, read: second compound 10 µM, first compound 0.03 µM.
Setting [32] is: second compound 10 µM, first compound 0.0949 µM.
[33] abbreviates: second compound 10 µM, first compound 0.3 µM.
Where [34] appears, read: second compound 10 µM, first compound 0.949 µM.
Where [35] appears, read: second compound 10 µM, first compound 3 µM.

Values joined by “and” are separate entries in the source; they are usually repeats but may differ in a detail not shown here. Identical values can stand only once. A value given as a limit tells only on which side of the number the result lay.

The viability, T/C is the result in the treated group divided by that in the control group, in per cent. For orientation: IC50 means the point on the concentration scale where inhibition reaches its midpoint.
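Note: seven day compound exposure before luminescent viability read.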
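Throughout, for viability, T/C: 100% = DMSO vehicle control wells.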

As for `Nc1ncn(C2CC(O)C(CO)O2)c(=O)n1` (configuration not stated), the viability, T/C is, setting by setting: (compound 0.00316 µM) 98.6% and 89%; (compound 0.01 µM) 96.7% and 91.5%; (compound 0.0316 µM) 71.8% and 82.9%; (compound 0.1 µM) 69.7% and 73.9%; (compound 0.316 µM) 63.4% and 63.6%; (compound 1 µM) 55.4% and 58.2%. Also, the IC50 (curve of compound) was greater than 1000 nM.
`O=C(c1cc(Cc2n[nH]c(=O)c3ccccc23)ccc1F)N1CCN(C(=O)C2CC2)CC1`: the viability, T/C runs as follows: (compound 0.0316 µM) 106% and 100%; (compound 0.1 µM) 98.8% and 100%; (compound 0.316 µM) 98.5% and 99.6%; (compound 1 µM) 95.4% and 85.9%; (compound 3.16 µM) 74.9% and 73%; (compound 10 µM) 48.1% and 42.4%. For the same compound, the IC50 (curve of compound) is 9280 nM and 7490 nM.
`Nc1ccn(C2OC(CO)C(O)C2(F)F)c(=O)n1` (configuration not stated): the viability, T/C (compound 0.000949 µM) was 39.2% and 33.5%; the viability, T/C (compound 0.003 µM) was 12% and 10.8%; the viability, T/C (compound 0.00949 µM) was 6.12% and 5.67%; the viability, T/C (compound 0.03 µM) was 5.81% and 5.6%; the viability, T/C (compound 0.0949 µM) was 8.04% and 6.06%; the viability, T/C (compound 0.3 µM) was 6.84% and 5.56%. For the same compound, the IC50 (curve of compound) is less than 0.949 nM.
With `Cn1ncnc1C1c2n[nH]c(=O)c3cc(F)cc(c23)NC1c1ccc(F)cc1` (configuration not stated), the viability, T/C (compound 0.000316 µM) was 86.8% and 103%; the viability, T/C (compound 0.001 µM) was 102% and 101%; the viability, T/C (compound 0.00316 µM) was 94.5% and 96.3%; the viability, T/C (compound 0.01 µM) is 93.9% and 94.8%; the viability, T/C (compound 0.0316 µM) was 85.9% and 88.3%; the viability, T/C (compound 0.1 µM) was 82.3% and 83.5%. Besides, under “curve of compound”, the IC50 is greater than 100 nM.
With `CC(C)CC(NC(=O)CNC(=O)c1cc(Cl)ccc1Cl)B1OC(=O)CC(CC(=O)O)(C(=O)O)O1` (configuration not stated), the viability, T/C (compound 0.000316 µM) was 99.1% and 96.2%; the viability, T/C (compound 0.001 µM) is 113% and 105%; the viability, T/C (compound 0.00316 µM) was 87.8% and 85.7%; the viability, T/C (compound 0.01 µM) is 17% and 20.2%; the viability, T/C (compound 0.0316 µM) is 6.27% and 3.15%; the viability, T/C (compound 0.1 µM) was 0.79% and 0.83%. Further, the IC50 (curve of compound) is 5.86 nM and 5.94 nM.
As to `O=C(C=Cn1cnc(-c2cc(C(F)(F)F)cc(C(F)(F)F)c2)n1)NNc1cnccn1`, the viability, T/C (compound 0.00316 µM) was 59.5% and 55.2%; the viability, T/C (compound 0.01 µM) is 55.9% and 55%; the viability, T/C (compound 0.0316 µM) was 30.4% and 29.4%; the viability, T/C (compound 0.1 µM) is 14.4% and 14.1%; the viability, T/C (compound 0.316 µM) is 8.05% and 8.45%; the viability, T/C (compound 1 µM) was 5.62% and 5.3%. Moreover, the IC50 (curve of compound) was 12.4 nM and 11.4 nM.
Regarding `CCN(c1cc(-c2ccc(CN3CCOCC3)cc2)cc(C(=O)NCc2c(C)cc(C)[nH]c2=O)c1C)C1CCOCC1` + NC1CCC(NC2CC2c2ccccc2)CC1, the IC50 runs as follows: under setting [1], 953 nM; under setting [2], 694 nM; under setting [3], 647 nM; under setting [4], 649 nM; under setting [5], 453 nM. Moreover, the viability, T/C was 67.3% under setting [6]; 69.7% under setting [7]; 76.6% under setting [8]; 63.5% under setting [9]; 50.6% under setting [10]; 21.3% under setting [11]. Further, the viability, T/C under setting [12] is 77.2%; the viability, T/C under setting [13] was 71.7%; the viability, T/C under setting [14] was 66.6%; the viability, T/C under setting [15] was 66.8%; the viability, T/C under setting [16] is 44%; the viability, T/C under setting [17] was 18.4%. The viability, T/C under setting [18] is 60%; the viability, T/C under setting [19] is 61.8%; the viability, T/C under setting [20] was 67.6%; the viability, T/C under setting [21] was 61%; the viability, T/C under setting [22] is 44.3%; the viability, T/C under setting [23] was 17.7%. Besides, the viability, T/C reads like this: under setting [24], 59.8%; under setting [25], 68.4%; under setting [26], 68.1%; under setting [27], 57.6%; under setting [28], 45.6%; under setting [29], 18.5%. The viability, T/C by setting is: under setting [30], 62.8%; under setting [31], 64.3%; under setting [32], 63.4%; under setting [33], 56.8%; under setting [34], 37.4%; under setting [35], 15.8%.
As to `NS(=O)(=O)OCC1CC(n2ccc3c(NC4CCc5ccccc54)ncnc32)CC1O` (configuration not stated) + NC1CCC(NC2CC2c2ccccc2)CC1, the IC50 was 16.8 nM under setting [1]; 16.7 nM under setting [2]; 16.1 nM under setting [3]; 15.3 nM under setting [4]; 12.8 nM under setting [5]. Also, the viability, T/C is 83.8% under setting [6]; 15.6% under setting [7]; 3.97% under setting [8]; 1.88% under setting [9]; 1.9% under setting [10]; 2.04% under setting [11]. Further, the viability, T/C runs as follows: under setting [12], 83.4%; under setting [13], 15.3%; under setting [14], 4.75%; under setting [15], 3.14%; under setting [16], 2.25%; under setting [17], 1.88%. Further, the viability, T/C is 77.6% under setting [18]; 17.4% under setting [19]; 4.76% under setting [20]; 2.36% under setting [21]; 2.12% under setting [22]; 1.71% under setting [23]. Further, the viability, T/C is, setting by setting: under setting [24], 72.7%; under setting [25], 18.4%; under setting [26], 4.6%; under setting [27], 2.14%; under setting [28], 1.54%; under setting [29], 1.63%. In addition, the viability, T/C by setting is: under setting [30], 62.3%; under setting [31], 15.6%; under setting [32], 4.83%; under setting [33], 2.29%; under setting [34], 1.42%; under setting [35], 0.82%.
